Source: patent publication US20040156869A1, “2-substituted quinazolin-4-ylamine analogues” (Neurogen Corporation, priority 2002, published 2004)
pKi: −log10 of the molar value.

The molecules below were run against human capsaicin receptor (VR1) (Homo sapiens, UniProt Q8NER1) (assay: Capsaicin receptor binding assay ([3H]RTX competition, VR1-transfected HEK293 membranes)). Details: not given.
Sequence of human capsaicin receptor (VR1) (Q8NER1 whole entry): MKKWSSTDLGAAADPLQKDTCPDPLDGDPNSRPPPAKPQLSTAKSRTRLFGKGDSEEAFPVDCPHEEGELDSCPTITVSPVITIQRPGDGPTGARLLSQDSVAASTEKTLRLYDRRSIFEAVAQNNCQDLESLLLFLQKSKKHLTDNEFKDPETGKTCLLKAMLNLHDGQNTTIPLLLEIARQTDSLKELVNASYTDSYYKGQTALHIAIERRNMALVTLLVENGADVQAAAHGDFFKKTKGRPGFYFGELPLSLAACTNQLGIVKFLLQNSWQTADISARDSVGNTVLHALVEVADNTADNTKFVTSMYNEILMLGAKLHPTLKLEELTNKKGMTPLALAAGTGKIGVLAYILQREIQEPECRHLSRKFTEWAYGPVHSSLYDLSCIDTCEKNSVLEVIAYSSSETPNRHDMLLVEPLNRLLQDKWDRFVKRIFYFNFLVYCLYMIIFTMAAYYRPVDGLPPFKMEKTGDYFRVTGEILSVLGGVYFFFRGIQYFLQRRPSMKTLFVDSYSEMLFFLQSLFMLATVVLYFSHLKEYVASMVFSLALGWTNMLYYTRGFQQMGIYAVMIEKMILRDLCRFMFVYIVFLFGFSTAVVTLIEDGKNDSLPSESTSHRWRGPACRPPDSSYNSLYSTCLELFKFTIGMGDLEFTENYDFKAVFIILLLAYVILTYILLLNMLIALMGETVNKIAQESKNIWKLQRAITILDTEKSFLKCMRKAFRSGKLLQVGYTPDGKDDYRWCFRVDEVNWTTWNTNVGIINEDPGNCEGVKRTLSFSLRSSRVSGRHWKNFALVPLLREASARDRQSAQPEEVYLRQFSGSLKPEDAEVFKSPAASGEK

pKi, > 6.00:
COc1ccc(CNCc2nc(Nc3ccc(C(F)(F)F)nc3)c3ccc(-c4ncccc4C(F)(F)F)cc3n2)cc1 [Compound 577, [2-[(4-Methoxy-benzylamino)-methyl]-7-(3-trifluoromethyl-pyridin-2-yl)-quinazolin-4-yl]-(6-trifluoromethyl-pyridin-3-yl)-amine]
FC(F)(F)c1ccc(Nc2nc(CNCc3ccccn3)nc3cc(-c4ncccc4C(F)(F)F)ccc23)cn1 [Compound 578, [2-{[(Pyridin-2-ylmethyl)-amino]-methyl}-7-(3-trifluoromethyl-pyridin-2-yl)-quinazolin-4-yl]-(6-trifluoromethyl-pyridin-3-yl)-amine]
FC(F)(F)c1ccc(Nc2nc(Cn3ccnc3)nc3cc(-c4ncccc4C(F)(F)F)ccc23)cn1 [Compound 579, [2-Imidazol-1-ylmethyl-7-(3-trifluoromethyl-pyridin-2-yl)-quinazolin-4-yl]-(6-trifluoromethyl-pyridin-3-yl)-amine]
O=S(=O)(c1ccc(Nc2nc(CN3CCOCC3)nc3cc(-c4ncccc4C(F)(F)F)ccc23)cc1)C(F)(F)F [Compound 580, [2-Morpholin-4-ylmethyl-7-(3-trifluoromethyl-pyridin-2-yl)-quinazolin-4-yl]-(4-trifluoromethanesulfonyl-phenyl)-amine]
CC1CN(Cc2nc(Nc3ccc(S(=O)(=O)C(F)(F)F)cc3)c3ccc(-c4ncccc4C(F)(F)F)cc3n2)CC(C)O1 (stereo not drawn) [Compound 581, [2-(2,6-Dimethyl-morpholin-4-ylmethyl)-7-(3-trifluoromethyl-pyridin-2-yl)-quinazolin-4-yl]-(4-trifluoromethanesulfonyl-phenyl)-amine]
C[C@@H]1CN(Cc2nc(Nc3ccc(S(=O)(=O)C(F)(F)F)cc3)c3ccc(-c4ncccc4C(F)(F)F)cc3n2)C[C@H](C)O1 [Compound 582, [2-(2,6-Dimethyl-morpholin-4-ylmethyl)-7-(3-trifluoromethyl-pyridin-2-yl)-quinazolin-4-yl]-(4-trifluoromethanesulfonyl-phenyl)-amine (cis)]
CCCOC(=O)N1CCN(CCc2nc(Nc3ccc(C(F)(F)F)cc3)c3ccc(-c4ncccc4C(F)(F)F)cc3n2)CC1 [Compound 585, 4-{2-[4-(4-Trifluoromethyl-phenylamino)-7-(3-trifluoromethyl-pyridin-2-yl)-quinazolin-2-yl]-ethyl}-piperazine-1-carboxylic acid propyl ester]
OC1CCN(CCc2nc(Nc3ccc(C(F)(F)F)cc3)c3ccc(-c4ncccc4C(F)(F)F)cc3n2)CC1 [Compound 586, [2-(4-Hydroxy-piperidin-1-ylethyl)-7-(3-trifluoromethyl-pyridin-2-yl)-quinazolin-4-yl]-(4-trifluoromethyl-phenyl)-amine]
CC1CCCN(CCc2nc(Nc3ccc(C(F)(F)F)cc3)c3ccc(-c4ncccc4C(F)(F)F)cc3n2)C1 (stereo not drawn) [Compound 587, [2-(3-Methyl-piperidin-1-ylethyl)-7-(3-trifluoromethyl-pyridin-2-yl)-quinazolin-4-yl]-(4-trifluoromethyl-phenyl)-amine]
OC1CCCN(CCc2nc(Nc3ccc(C(F)(F)F)cc3)c3ccc(-c4ncccc4C(F)(F)F)cc3n2)C1 (stereo not drawn) [Compound 588, [2-(3-Hydroxy-piperidin-1-ylethyl)-7-(3-trifluoromethyl-pyridin-2-yl)-quinazolin-4-yl]-(4-trifluoromethyl-phenyl)-amine]
NC(=O)C1CCN(CCc2nc(Nc3ccc(C(F)(F)F)cc3)c3ccc(-c4ncccc4C(F)(F)F)cc3n2)CC1 [Compound 589, 1-{2-[4-(4-Trifluoromethyl-phenylamino)-7-(3-trifluoromethyl-pyridin-2-yl)-quinazolin-2-yl]-ethyl}-piperidine-4-carboxylic acid amide]
CCOC(=O)C1CCCN(CCc2nc(Nc3ccc(C(F)(F)F)cc3)c3ccc(-c4ncccc4C(F)(F)F)cc3n2)C1 (stereo not drawn) [Compound 590, 1-{2-[4-(4-Trifluoromethyl-phenylamino)-7-(3-trifluoromethyl-pyridin-2-yl)-quinazolin-2-yl]-ethyl}-piperidine-3-carboxylic acid ethyl ester]
CCOC(=O)C1CCN(CCc2nc(Nc3ccc(C(F)(F)F)cc3)c3ccc(-c4ncccc4C(F)(F)F)cc3n2)CC1 [Compound 592, 1-{2-[4-(4-Trifluoromethyl-phenylamino)-7-(3-trifluoromethyl-pyridin-2-yl)-quinazolin-2-yl]-ethyl}-piperidine-4-carboxylic acid ethyl ester]
C[C@@H]1CN(Cc2nc(Nc3ccc(S(=O)(=O)C(F)(F)F)cc3)c3ncc(-c4ncccc4C(F)(F)F)cc3n2)C[C@H](C)O1 [Compound 593, [2-(2,6-Dimethyl-morpholin-4-ylmethyl)-7-(3-trifluoromethyl-pyridin-2-yl)-pyrido[3,2-d]pyrimidin-4-yl]-(4-trifluoromethanesulfonyl-phenyl)-amine (cis)]
CCCS(=O)(=O)c1ccc(Nc2nc(CN3C[C@@H](C)O[C@@H](C)C3)nc3cc(-c4ncccc4C(F)(F)F)cnc23)cc1 [Compound 594, [2-(2,6-Dimethyl-morpholin-4-ylmethyl)-7-(3-trifluoromethyl-pyridin-2-yl)-pyrido[3,2-d]pyrimidin-4-yl]-[4-(propane-1-sulfonyl)-phenyl]-amine (cis)]
CC(C)S(=O)(=O)c1ccc(Nc2nc(CN3C[C@@H](C)O[C@@H](C)C3)nc3cc(-c4ncccc4C(F)(F)F)cnc23)cc1 [Compound 595, [2-(2,6-Dimethyl-morpholin-4-ylmethyl)-7-(3-trifluoromethyl-pyridin-2-yl)-pyrido[3,2-d]pyrimidin-4-yl]-[4-(propane-2-sulfonyl)-phenyl]-amine (cis)]
C[C@@H]1CN(Cc2nc(Nc3ccc(C(F)(F)F)cc3)c3ccc(-c4ncccc4Cl)cc3n2)C[C@H](C)O1 [Compound 598, [7-(3-Chloro-pyridin-2-yl)-2-(2,6-dimethyl-morpholin-4-ylmethyl)-quinazolin-4-yl]-(4-trifluoromethyl-phenyl)-amine (cis)]
C[C@@H]1CN(Cc2nc(Nc3ccc(C(F)(F)F)nc3)c3ccc(-c4ncccc4Cl)cc3n2)C[C@H](C)O1 [Compound 599, [7-(3-Chloro-pyridin-2-yl)-2-(2,6-dimethyl-morpholin-4-ylmethyl)-quinazolin-4-yl]-(6-trifluoromethyl-pyridin-3-yl)-amine (cis)]
C[C@@H]1CN(Cc2nc(Nc3ccc(S(=O)(=O)C(F)(F)F)cc3)c3ccc(-c4ncccc4Cl)cc3n2)C[C@H](C)O1 [Compound 602, [7-(3-Chloro-pyridin-2-yl)-2-(2,6-dimethyl-morpholin-4-ylmethyl)-quinazolin-4-yl]-(4-trifluoromethanesulfonyl-phenyl)-amine (cis)]
Cc1cccnc1-c1cnc2c(Nc3ccc(C(F)(F)F)cc3)nc(CN3C[C@@H](C)O[C@@H](C)C3)nc2c1 [Compound 603, [2-(2,6-Dimethyl-morpholin-4-ylmethyl)-7-(3-methyl-pyridin-2-yl)-pyrido[3,2-d]pyrimidin-4-yl]-(4-trifluoromethyl-phenyl)-amine (cis)]
C[C@H]1CN(Cc2nc(Nc3ccc(C(F)(F)F)cc3)c3ccc(-c4ncccc4Cl)cc3n2)C[C@H](C)O1 [Compound 604, (S,S)-[7-(3-Chloro-pyridin-2-yl)-2-(2,6-dimethyl-morpholin-4-ylmethyl)-quinazolin-4-yl]-(4-trifluoromethyl-phenyl)-amine]
C[C@H]1CN(Cc2nc(Nc3ccc(C(C)(C)C)nc3)c3ccc(-c4ncccc4Cl)cc3n2)C[C@H](C)O1 [Compound 605, (S,S)-(6-tert-Butyl-pyridin-3-yl)-[7-(3-chloro-pyridin-2-yl)-2-(2,6-dimethyl-morpholin-4-ylmethyl)-quinazolin-4-yl]-amine]
C[C@@H]1CN(Cc2nc(Nc3ccc(C(F)(F)F)cc3)c3ccc(-c4ncccc4Cl)cc3n2)C[C@@H](C)O1 [Compound 606, (R,R)-[7-(3-Chloro-pyridin-2-yl)-2-(2,6-dimethyl-morpholin-4-ylmethyl)-quinazolin-4-yl]-(4-trifluoromethyl-phenyl)-amine]
C[C@@H]1CN(Cc2nc(Nc3ccc(C(C)(C)C)nc3)c3ccc(-c4ncccc4Cl)cc3n2)C[C@@H](C)O1 [Compound 607, (R,R)-(6-tert-Butyl-pyridin-3-yl)-[7-(3-chloro-pyridin-2-yl)-2-(2,6-dimethyl-morpholin-4-ylmethyl)-quinazolin-4-yl]-amine]
C[C@H]1CN(Cc2nc(Nc3ccc(C(F)(F)F)nc3)c3ccc(-c4ncccc4Cl)cc3n2)C[C@H](C)O1 [Compound 608, (S,S)-[7-(3-Chloro-pyridin-2-yl)-2-(2,6-dimethyl-morpholin-4-ylmethyl)-quinazolin-4-yl]-(6-trifluoromethyl-pyridin-3-yl)-amine]
C[C@H]1CN(Cc2nc(Nc3ccc(C(C)(C)C)nc3)c3ccc(-c4ncccc4C(F)(F)F)cc3n2)C[C@H](C)O1 [Compound 609, (S,S)-(6-tert-Butyl-pyridin-3-yl)-[2-(2,6-dimethyl-morpholin-4-ylmethyl)-7-(3-trifluoromethyl-pyridin-2-yl)-quinazolin-4-yl]-amine]

Same assay, conditions: Table III; capsaicin receptor binding

pKi, > 6.00:
CC1CN(Cc2nc(Nc3ccc(C(C)(C)C)cc3)c3ncc(-c4ncccc4C(F)(F)F)cc3n2)CC(C)O1 (stereo not drawn) [Compound 583, (4-tert-Butyl-phenyl)-[2-(2,6-dimethyl-morpholin-4-ylmethyl)-7-(3-trifluoromethyl-pyridin-2-yl)-pyrido[3,2-d]pyrimidin-4-yl]-amine (cis)]
